Assay results reported in PMC8156934, “Photophysical Study and Biological Applications of Synthetic Chalcone-Based Fluorescent Dyes” (Molecules, 2021).
In brackets after ≈: the same amount, converted by molar mass.

Tests used:
E. coli 780 = test: Antibacterial activity test (MIC, MBC, growth curve); type: cell-based, Escherichia coli; details: Escherichia coli, E. coli 780, mean ± SD of three independent experiments; for MBC: read-out: MBC; for MIC: read-out: MIC
Description: (§1) All bacteria strains were obtained from the Thailand Institute of Scientific and Technological Research (TISTR). The antibacterial activity of chalcones 3a–f was determined by the minimal inhibitory concentration (MIC) and the minimal bactericidal concentration (MBC) against the Gram-positive (S. aureus 1466, TISTR 1466) and Gram-negative (E.coli 780, TISTR 780) bacteria. The stocks of chalcones 3a–f (0.60 mg/mL) were serially diluted in Muller–Hinton (MH) broth to obtain concentrations in the range of 250–1000 µM. The solutions of chalcones 3a–f (100 µL) at different concentrations were added in the culture of the tested bacteria (100 µL) at a concentration of 1 × 10^6 colony-forming units/mL (CFU/mL) in MH broth at 37 °C with shaking at 80 rpm. The bacterial numbers were determined by measuring the optical density at 600 nm by a UV–Vis spectrometer. […] To determine the MBC values, the bacterial cultures (10 µL) containing the solutions of chalcones 3a–f at MIC and three higher concentrations were dropped on MH agar plates.

[1] = Photo-stability test (photobleaching under 250 W blue light); type: physicochemical; details: DMSO, 250 W blue light (380–500 nm), after 30 min irradiation
Description: Chalcones 3a–f were dissolved in DMSO at the final concentration of 1 × 10^−6 M for measuring absorption and emission intensity. Then, 3a–f were irradiated at 250 W (blue-lamp) at a distance of 75 cm. The UV–Visible absorption and fluorescence spectra of the solutions were measured at different time points including 0, 1, 5, 10, 15, 20, and 30 min. Photo-stability was reported in terms of photobleaching absorption and emission (%) calculated from the change of absorption and emission intensity at the absorption and emission maxima before and after irradiation.

[2] = pH effect on fluorescence emission; type: physicochemical; details: pH range from 2 to 12, 2 µM, 3% Tween 80
Description: Chalcones 3a–f (2 µM) were dissolved in commercial pH 1–12 buffers purchased from Merck (St. Louis, MO, USA) (glycine/NaCl/HCl for pH 1, citric acid/NaOH/HCl for pH 2–6, Na2HPO4/KH2PO4 for pH 7, boric acid/ KCl/NaOH for pH 8–11, Na3PO4/NaOH for pH 12) in the presence of Tween 80 (3% w/w). The actual pH values of the final buffer solutions were measured by a pH meter. The resulting solutions were examined by a Spectrofluorometer (PerkinElmer LS55) at the maximum absorbance wavelength of each compound.

HEK-293 = test: Cell viability MTT assay, normal cells; type: cell-based; details: Homo sapiens, HEK293; HEK-293, 24 h, MTT; read-out: IC50
Description: (§2) For fluorescence imaging of living cells, human embryonic kidney 293 (HEK-293, ATCC) and human hepatoma cancer cell (HepG2, ATCC) were cultured in Dulbecco′s Modified Eagle′s Medium (DMEM, HyClone) supplemented with 10% Fetal Bovine Serum (FBS, Gibco, Carlsbad, CA, USA) and 1% Penicillin/Streptomycin Solution 100X (Corning, Corning, NY, USA). All cells were cultured in a humidified incubator at 37 °C with 5% CO2. HEK-293 and HepG2 cells, approximately 1 × 10^4 cells, were seeded on 8-well chambered cover glasses (LabTek, Nunc, Carlsbad, CA, USA) and incubated in complete medium for 24 h. After that, the cells were treated with 5 μM stock solutions of 3a–f in DMSO/cell culture medium containing 10% FBS (0.25% DMSO), for 0, 1, 3, and 6 h. Then, the cells were washed twice with 0.01 M PBS before being visualized under a Laser-Scanning Confocal Microscope (Nikon A1Rsi) with a 60× oil immersion objective lens and living cell workstation with the excitation channel at 488 nm.
(§3) The cells were seeded on a 96-well plate, approximately 7 × 10^3 cells per well, and incubated in complete medium for 24 h. After that, the cells were treated with 0, 1, 5, 10, 20, and 50 μM of chalcones 3a–f, and culturing continued for 24 h. After incubation, the cells were washed three times with 10 mM PBS and treated with […] of methylthiazolyldiphenyl-tetrazolium bromide (MTT reagent, 0.5 mg mL^−1, Sigma-Aldrich, St. Louis, MO, USA) for 2–3 h. After medium removal, DMSO was added to dissolve the formazan product, and cell viability was determined by UV–Vis absorption of the resulting formazan at a wavelength of 560 nm in a microplate reader (BMG Labtech/SPECTROstar Nano, Ortenberg, Germany).

HepG2 = test: Cell viability MTT assay, cancer cells; type: cell-based; details: Homo sapiens; HepG2, 24 h, MTT; read-out: IC50
Description: as §2, §3

[3] = Photophysical properties (UV–Vis absorption and fluorescence spectra); type: physicochemical; details: for λabs absorption maximum wavelength / ∆λ stokes shifts (λem − λabs) / λem emission maximum wavelength / Φf fluorescence quantum yields: 2 µM; for λem emission maximum wavelength: excited at the maximum absorption wavelength; for Φf fluorescence quantum yields: n = 3, relative to fluorescein in 0.1 M NaOH
Description: All UV–Vis absorption and fluorescence spectra were recorded on a UV–Vis Spectrophotometer (Agilent Technologies Cary 300, Santa Clara, CA, USA) and a Spectrofluorometer (PerkinElmer LS55, Waltham, MA, USA), respectively. In both experiments, the stock solutions of chalcones 3a–f were prepared as 0.5 mM in DMSO. The appropriate amount of the stock solution was added to DMSO, MeOH, and 0.01 M PBS buffer (pH 7.4) with 3% Tween 80 (3 mL) to obtain the final concentration of 2 µM in the testing solutions. For fluorescence experiments, the emission spectra were recorded at the maximum absorbance wavelength of each compound. The fluorescent quantum yields (Φf) were calculated relative to fluorescein in 0.1 M NaOH as a standard (Φf = 0.95).

S. aureus 1466 = test: Antibacterial activity test (MIC, MBC, growth curve); type: cell-based, Staphylococcus aureus; details: Staphylococcus aureus, S. aureus 1466, mean ± SD of three independent experiments; for MBC: read-out: MBC; for MIC: read-out: MIC
Description: as §1

[4] = 0.1 M NaOH, used as standard; no reference given; cited from earlier work

In the case of `Cc1ccc(C(=O)/C=C/c2ccc(N(C)C)cc2)cc1` [3e], the MBC (E. coli 780) is reported as 1000 ± 0.02 µM (≈ 265 µg/mL), the MIC (E. coli 780) is reported as 375 ± 0.01 µM (≈ 99.5 µg/mL) and the “% photobleaching of absorbance” value [1] is reported as 46%. The “% photobleaching of fluorescence” value [1] was 21%, the fluorescence emission [2] was “Higher emission peaks” and the IC50 (HEK-293) was 96 µM. For the same compound, the IC50 (HepG2) was 54 µM, the ε molar absorptivity ([3]; DMSO) was 32000 M⁻¹ cm⁻¹ and the “λabs absorption maximum wavelength” value ([3]; DMSO) was 420 nm. The “∆λ stokes shifts (λem − λabs)” value ([3]; DMSO) was 119 nm, the “λem emission maximum wavelength” value ([3]; DMSO) was 539 nm and the “Φf fluorescence quantum yields” value ([3]; DMSO) was 0.50 ± 0.02. For the same compound, the ε molar absorptivity ([3]; MeOH) was 32000 M⁻¹ cm⁻¹, the “λabs absorption maximum wavelength” value ([3]; MeOH) was 417 nm and the “∆λ stokes shifts (λem − λabs)” value ([3]; MeOH) was 130 nm. The “λem emission maximum wavelength” value ([3]; MeOH) was 547 nm, the “Φf fluorescence quantum yields” value ([3]; MeOH) was 0.012 ± 0.007 and the ε molar absorptivity ([3]; PBS (3%w/w tween 80)) was 28000 M⁻¹ cm⁻¹. The “λabs absorption maximum wavelength” value ([3]; PBS (3%w/w tween 80)) was 420 nm, the “∆λ stokes shifts (λem − λabs)” value ([3]; PBS (3%w/w tween 80)) was 101 nm and the “λem emission maximum wavelength” value ([3]; PBS (3%w/w tween 80)) was 521 nm. For the same compound, the “Φf fluorescence quantum yields” value ([3]; PBS (3%w/w tween 80)) was 0.18 ± 0.03, the MBC (S. aureus 1466) was 1000 ± 0.02 µM (≈ 265 µg/mL) and the MIC (S. aureus 1466) was 375 ± 0.03 µM (≈ 99.5 µg/mL).
For `CN(C)c1ccc(/C=C/C(=O)c2ccc(N)cc2)cc1` [3f], the MBC (E. coli 780) was 750 ± 0.01 µM (≈ 200 µg/mL), the MIC (E. coli 780) was 375 ± 0.01 µM (≈ 99.9 µg/mL) and the “% photobleaching of absorbance” value [1] was 48%. For the same compound, the “% photobleaching of fluorescence” value [1] was 47%, the fluorescence emission [2] was “Higher emission peaks” and the IC50 (HEK-293) was > 100 µM. For the same compound, the IC50 (HepG2) was 54 µM, the ε molar absorptivity ([3]; DMSO) was 35000 M⁻¹ cm⁻¹ and the “λabs absorption maximum wavelength” value ([3]; DMSO) was 412 nm. For the same compound, the “∆λ stokes shifts (λem − λabs)” value ([3]; DMSO) was 100 nm, the “λem emission maximum wavelength” value ([3]; DMSO) was 512 nm and the “Φf fluorescence quantum yields” value ([3]; DMSO) was 0.21 ± 0.03. For the same compound, the ε molar absorptivity ([3]; MeOH) was 31000 M⁻¹ cm⁻¹, the “λabs absorption maximum wavelength” value ([3]; MeOH) was 414 nm and the “∆λ stokes shifts (λem − λabs)” value ([3]; MeOH) was 135 nm. For the same compound, the “λem emission maximum wavelength” value ([3]; MeOH) was 549 nm, the “Φf fluorescence quantum yields” value ([3]; MeOH) was 0.027 ± 0.011 and the ε molar absorptivity ([3]; PBS (3%w/w tween 80)) was 34000 M⁻¹ cm⁻¹. For the same compound, the “λabs absorption maximum wavelength” value ([3]; PBS (3%w/w tween 80)) was 412 nm, the “∆λ stokes shifts (λem − λabs)” value ([3]; PBS (3%w/w tween 80)) was 112 nm and the “λem emission maximum wavelength” value ([3]; PBS (3%w/w tween 80)) was 524 nm. The “Φf fluorescence quantum yields” value ([3]; PBS (3%w/w tween 80)) was 0.18 ± 0.02, the MBC (S. aureus 1466) was 1000 ± 0.04 µM (≈ 266 µg/mL) and the MIC (S. aureus 1466) was 375 ± 0.01 µM (≈ 99.9 µg/mL).
In the case of `O=C1OC2(c3ccc(O)cc3Oc3cc(O)ccc32)c2ccccc21` [fluorescein], the “Φf fluorescent quantum yield of the standard” value [4] is given as 0.95.
